Measured values taken from patent publication US20170349540A1, “HISTONE DEACETYLASE INHIBITORS” (The General Hospital Corporation, priority 2014, published 2017).

Experiments:
HDAC = assay: In vivo PET imaging: blocking of whole brain uptake of the radiolabeled compound of Example 3; design: species or system rat
Description: Male Sprague-Dawley rats were utilized in pairs, anesthetized with inhalational isoflurane (Forane) at 3% in a carrier of 1.5-2 L/min medical oxygen and maintained at 2% isoflurane for the duration of the scan. The rats were arranged head-to-head in a Triumph Trimodality PET/CT/SPECT scanner (Gamma Medica, Northridge, Calif.). Rats were injected standard references or vehicle via a lateral tail vein catheterization at the start of Positron Emission Tomography (PET) acquisition. Dynamic PET acquisition lasted for 60 min and was followed by computed tomography (CT) for anatomic co-registration. PET data were reconstructed using a 3D-MLEM method resulting in a full width at half-maximum resolution of 1 mm. Reconstructed images were exported from the scanner in DICOM format along with an anatomic CT for rodent studies. These files were imported to PMOD (PMOD Technologies, Ltd.) and manually coregistered using six degrees of freedom.
Volumes of interest (VOIs) were drawn manually as spheres in brain regions guided by high resolution CT structural images and summed PET data, with a radius no less than 1 mm to minimize partial volume effects. Time-activity curves (TACs) were exported in terms of decay corrected activity per unit volume at specified time points with gradually increasing intervals. The TACs were expressed as percent injected dose per unit volume for analysis.
Summed PET images following injection with the ^11C radiolabeled (E)-3-(4-((((1r,3R,5S)-adamantan-1-ylmethyl)(methyl)amino)methyl)phenyl)-N-hydroxyacrylamide (Example 3) at baseline or after 5 minutes pretreatment with 0.5 or 2.0 mg/kg unlabeled (E)-3-(4-((((1 r,3R,5 S)-adamantan-1-ylmethyl) (methyl)amino)methyl)phenyl)-N-hydroxyacrylamide illustrate brain uptake and self-blocking, as shown in FIG. 1A. Whole-brain tracer uptake levels, normalized to uptake at 10 min, were altered by 10-40% in self-blocking experiments with 5 min pretreatment with 1.0 μg-2.0 mg/kg unlabeled (E)-3-(4-((((1r,3R,5S)-adamantan-1-ylmethyl) (methyl)amino)methyl)phenyl)-N-hydroxyacrylamide, as shown in FIGS. 1B and 1C. This quantification provides a means to measure occupancy of HDAC targets on the basis of blocked binding of the radiolabeled compound of Example 3.
Whole brain uptake of the radiotracer of Example 3 was measured 4 h after acute systemic treatment.

[1] = Intraperitoneal pharmacokinetics and brain distribution assay; type: in vivo, male Sprague Dawley rats; details: single i.p. dose 1 mg/kg
Description: Healthy male Sprague Dawley rats (8-12 weeks old) weighing between 200 to 250 g were procured from Tina Labs, Hyderabad, India. Three rats were housed in each cage. Temperature and humidity were maintained at 22±3° C. and 40-70%, respectively and illumination was controlled to give a sequence of 12 hr light and 12 hr dark cycle. Temperature and humidity were recorded by auto-controlled data logger system. All the animals were provided laboratory rodent diet (Vetcare India Pvt. Ltd, Bengaluru) ad libitum. Reverse osmosis water treated with ultraviolet light was provided ad libitum.
Twenty one male Sprague Dawley rats were intraperitoneally administered with a solution formulation of the compound of Example 2 prepared in 10% DMSO, 10% Tween 80, and 80% normal saline. The blood samples were collected from a set of three rats at each time point in labeled micro centrifuge tube containing K2EDTA solution as anticoagulant. Plasma samples were separated by centrifugation of whole blood and stored at below −70° C. until bioanalysis. After collection of blood samples at each time point animals, were humanely euthanized by CO2 and the brain was collected. Brain samples were homogenized using ice-cold phosphate buffer saline (pH=7.4) and homogenates were stored at below −70° C. until analysis. Total homogenate volume was three times the brain weight. All samples were processed for analysis by protein precipitation using acetonitrile and analyzed with fit-for-purpose LC-MS/MS method (Lower Limits of Quantitation (LLOQ)=2.01 ng/mL in plasma and 1.01 ng/mL in brain). Pharmacokinetic parameters were calculated using the non-compartmental analysis tool of Phoenix WinNonlin® (Version 6.3).
The intraperitoneal solution formulation concentration was 0.1 mg/mL. The weighed quantity (7.02 mg) of (E)-3-(4-((((3r,5r,7r)-adamantan-1-ylmethyl)(methyl)amino)methyl)phenyl)-N-(2-aminophenyl)acrylamide was added in a labeled bottle. DMSO (7.02 mL) was added to dissolve the compound, followed by addition of Tween 80 (7.02 mL) and the solution was mixed by vortexing. Next, normal saline was added (56.16 mL) and the resulting solution was mixed by vortexing. The solution formulation was sonicated for 2 minutes to obtain a clear and transparent solution.
The blood samples were collected from set of three rats at each time point in labeled micro centrifuge tube containing K2EDTA solution as anticoagulant at time points of 0.08, 0.5, 1, 2, 4, 6, 8 & 24 hours. […]
Concentrations of the compound of Example 2 in rat plasma and brain samples were analyzed with fit-for-purpose by LC-MS/MS method. […] Following centrifugation, 100 µL of clear supernatant was transferred a 96-well plate and analyzed using LC-MS/MS. […]

- Kp ([1]; male, Sprague Dawley, rat, brain/plasma, ip, read-out: Brain-to-plasma exposure ratio): 20.6
- Tmax ([1]; male, Sprague Dawley, rat, plasma, ip): 30 min
- brain concentrations quantifiable up to ([1]; brain (2 animals), LLOQ 1.01 ng/mL): ≤ 24 h
- plasma concentrations quantifiable up to ([1]; plasma (2 animals), LLOQ 2.01 ng/mL): up to 8 h
SMILES: CN(Cc1ccc(/C=C/C(=O)Nc2ccccc2N)cc1)CC12CC3CC(CC(C3)C1)C2 [Example 2, (E)-3-(4-((((3r,5r,7r)-adamantan-1-ylmethyl)(methyl)amino)methyl)phenyl)-N-(2-aminophenyl)acrylamide]
- block of whole brain tracer uptake (HDAC; 0.1 mg/kg (lowest tested dosage), 4 h after acute systemic treatment, radiotracer of Example 3, relative to vehicle-blocked baseline): 25%
- HDAC occupancy in the brain (HDAC; 0.1 mg/kg i.p., based on PET imaging experiments): ~25%
- tracer uptake returning to baseline by (time post treatment) (HDAC; 0.1 mg/kg, radiotracer of Example 3): ≤ 7.5 h
